Measured values from patent US20030166202A1, “P450 Monooxygenases of the cyp79 family” (priority 2000, published 2003).

What was measured:
[1] = target: T1, CYP79A2 (Arabidopsis thaliana, UniProt Q9FLC8); test: CYP79A2 activity in E. coli spheroplasts reconstituted with NADPH:cytochrome P450 oxidoreductase; conditions: TLC or GC-MS detection
T1 sequence (Q9FLC8 7-529 limits assumed): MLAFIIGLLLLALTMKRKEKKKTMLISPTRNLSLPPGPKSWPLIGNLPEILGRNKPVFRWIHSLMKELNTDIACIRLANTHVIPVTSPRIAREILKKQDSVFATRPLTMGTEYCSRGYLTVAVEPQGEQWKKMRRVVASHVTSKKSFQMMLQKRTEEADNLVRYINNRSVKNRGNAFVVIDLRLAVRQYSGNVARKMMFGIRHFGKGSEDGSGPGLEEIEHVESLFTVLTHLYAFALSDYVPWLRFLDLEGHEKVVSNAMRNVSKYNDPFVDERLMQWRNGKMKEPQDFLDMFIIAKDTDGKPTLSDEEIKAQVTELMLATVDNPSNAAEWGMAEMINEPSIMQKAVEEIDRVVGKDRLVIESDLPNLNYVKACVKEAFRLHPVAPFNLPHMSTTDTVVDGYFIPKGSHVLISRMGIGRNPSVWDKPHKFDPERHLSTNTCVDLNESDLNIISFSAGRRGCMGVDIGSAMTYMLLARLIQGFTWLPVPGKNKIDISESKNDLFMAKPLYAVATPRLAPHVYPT

[2] = system: CYP79E2; test: Substrate specificity / reconstitution of CYP79E2; format: biochemical, Triglochin maritima
Protocol: (§1) Investigations into the substrate specificity of CYP79D1, CYP79D2, CYP79E1, CYP79E2, CYP79A2, CYP79B2, CYP79B5 and CYP79F1 are carried out in E. coli spheroplasts reconstituted with sorghum NADPH-cytochrome P450 oxidoreductase in the presence of high amounts of lipids. L-α-dioleyl phosphatidyl choline and L-α-dilauroyl phosphatidyl choline are preferred lipids for the reconstitution. […] Neither L-methionine, L-tryptophane nor L-tyrosine are metabolized by CYP79A2. Neither phenylalanine nor tyrosine are metabolized by CYP79B2. Neither L-tryptophane, L-phenylalanine nor L-tyrosine are metabolized by CYP79F1. D-Amino acids are not converted into oximes by CYP79D1, CYP79D2, CYP79E1 and CYP79E2. Depending on the nature of the substrate, substrate specificity may also be determined using intact P. pastoris cells or intact E. coli cells.
(§2) Expression levels of the different constructs are determined by CO difference spectroscopy and quantified using an extinction coefficient ε450-490 of 91 mM^−1cm^−1 (Omura et al, J. Biol. Chem. 239: 2370-2378, 1964). Spectra are made from 100 μl or 500 μl whole E. coli cells or using the rich phases from Triton X-114 phase partitioning solubilized in 50 mM KH2PO4/K2HPO4 pH 7.5, 2 mM EDTA, 20% glycerol, 0.2% Triton X-100 (total volume: 1 ml). […] In vitro activities are measured in reconstitution experiments using the rich phase from phase partitioning. […]

[3] = target: T2, CYP79E1 (Manihot esculenta, UniProt Q9M7B8); test: Substrate specificity / reconstitution of CYP79E1; format: biochemical, Triglochin maritima
T2 construct: A full length construct (CYP79E1na) encoding native CYP79E1 with silent mutations introduced at codons 3 and 5; made in house; host or cells: E. coli JM109 (vector pSP19g10L)
T2 sequence (Q9M7B8 whole entry): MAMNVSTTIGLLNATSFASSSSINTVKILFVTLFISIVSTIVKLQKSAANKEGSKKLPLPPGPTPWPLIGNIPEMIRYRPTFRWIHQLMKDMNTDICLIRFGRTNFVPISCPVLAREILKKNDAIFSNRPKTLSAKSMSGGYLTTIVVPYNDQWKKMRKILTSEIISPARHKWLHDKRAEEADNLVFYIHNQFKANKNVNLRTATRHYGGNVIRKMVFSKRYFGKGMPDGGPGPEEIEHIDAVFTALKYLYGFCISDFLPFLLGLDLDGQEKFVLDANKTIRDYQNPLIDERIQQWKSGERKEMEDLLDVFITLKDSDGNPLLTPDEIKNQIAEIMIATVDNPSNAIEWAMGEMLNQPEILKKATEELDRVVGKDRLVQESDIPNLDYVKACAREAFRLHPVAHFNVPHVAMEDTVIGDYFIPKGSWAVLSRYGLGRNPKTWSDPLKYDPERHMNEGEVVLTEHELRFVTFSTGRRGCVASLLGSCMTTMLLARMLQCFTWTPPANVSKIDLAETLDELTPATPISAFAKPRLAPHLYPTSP
Protocol: as §1, §2

[4] = with NADPH, NADPH-cytochrome P450 oxidoreductase, CYP71E1

N[C@@H](Cc1ccc(O)cc1)C(=O)O [L-tyrosine]
production of the respective aldoxime by CYP79A2 [1]: does not result in production of detectable amounts of the respective aldoximes
conversion to the corresponding oxime by CYP79E2 [2]: found to convert
product accumulation in reconstitution of CYP79E2 with CYP71E1 [2, 4]: considerable amounts of p-hydroxyphenylacetonitrile and p-hydroxybenzaidehyde accumulate
conversion to the corresponding oxime by CYP79E1 [3]: found to convert
product accumulation in reconstitution of CYP79E1 with CYP71E1 [3, 4]: considerable amounts of p-hydroxyphenylacetonitrile and p-hydroxybenzaidehyde accumulate
